Experimental data reported in ChEMBL document CHEMBL1811755, “α-Tocotrienol quinone modulates oxidative stress response and the biochemistry of aging” (Bioorg Med Chem Lett, 2011).
One block for each molecule: values may come before it. The source made the active and inactive calls. The calls are words filed in the database; no cut-off is given here.

What was measured:
[1] = tested on: Fibroblast; test: Cytoprotectant activity against L-buthionine-(S,R)-sulfoximine-induced cell death in Friedreich ataxia patient fibroblasts assessed as increase of cell viability up to 1000 nM; type: functional, cell-based; conditions: Homo sapiens
[2] = tested on: Fibroblast; test: Cytoprotectant activity against L-buthionine-(S,R)-sulfoximine-induced cell death in Leigh syndrome patient fibroblasts assessed as increase of cell viability up to 1000 nM; type: functional, cell-based; conditions: Homo sapiens
[3] = tested on: Rattus norvegicus; test: In vivo metabolic stability in rat assessed as parent compound remaining at 5 mg/kg, iv; type: ADME, organism-based; parameters: dose 5 mg/kg, route intravenous
[4] = tested on: Rattus norvegicus; test: In vivo metabolic stability in rat assessed as parent compound remaining at 25 mg/kg, po; type: ADME, organism-based; parameters: dose 25 mg/kg, route oral
[5] = Cytoprotectant activity against L-buthionine-(S,R)-sulfoximine-induced cell death in Friedreich ataxia patient fibroblasts assessed as increase of cell viability; type: functional, cell-based; conditions: Homo sapiens, Fibroblast
[6] = Apparent volume of distribution in dog plasma at 2 mg/kg, iv; type: ADME, organism-based, Canis lupus familiaris; parameters: dose 2 mg/kg, route intravenous; conditions: read-out: Vz
[7] = Cmax in mouse plasma at 25 mg/kg, ip; type: ADME, organism-based; parameters: dose 25 mg/kg, route intraperitoneal
[8] = Cmax in dog plasma at 10 mg/kg, po; type: ADME, organism-based, Canis lupus familiaris; parameters: dose 10 mg/kg, route oral
[9] = Tmax in mouse brain at 25 mg/kg, ip; type: ADME, organism-based; parameters: dose 25 mg/kg, route intraperitoneal
[10] = tested on: Mus musculus; test: Ratio of drug level in mouse heart to serum at 25 mg/kg, ip; conditions: other tissue
[11] = Bioavailability in dog plasma at 10 mg/kg, po; type: ADME, organism-based, Canis lupus familiaris
[12] = AUCt in dog plasma at 10 mg/kg, po; type: ADME, organism-based, Canis lupus familiaris; parameters: dose 10 mg/kg, route oral
[13] = Tmax in rat plasma at 25 mg/kg, po; type: ADME, organism-based; parameters: dose 25 mg/kg, route oral
[14] = Drug level in dog cornea at 300 mg/kg/day, po qd for 7 days; type: ADME, organism-based, Canis lupus familiaris; parameters: route oral; conditions: read-out: Drug uptake
[15] = Terminal half life in dog plasma at 2 mg/kg, iv; type: ADME, organism-based, Canis lupus familiaris; parameters: dose 2 mg/kg, route intravenous; conditions: read-out: beta t1/2 (converted)
[16] = AUCt in rat plasma at 10 mg/kg, po; type: ADME, organism-based; parameters: dose 10 mg/kg, route oral
[17] = Bioavailability in fasted rat plasma at 25 mg/kg, po; type: ADME, organism-based
[18] = AUC (infinity) in dog plasma at 10 mg/kg, po; type: ADME, organism-based, Canis lupus familiaris; parameters: time infinity, dose 10 mg/kg, route oral
[19] = Terminal half life in mouse plasma at 25 mg/kg, ip; type: ADME, organism-based; parameters: dose 25 mg/kg, route intraperitoneal; conditions: read-out: beta t1/2 (converted)
[20] = tested on: Heart; test: Drug level in mouse heart at 25 mg/kg, ip; type: ADME, organism-based; parameters: dose 25 mg/kg, route intraperitoneal; conditions: in vivo
[21] = Cmax in mouse brain at 25 mg/kg, ip; type: ADME, organism-based; parameters: dose 25 mg/kg, route intraperitoneal
[22] = Volume of distribution at steady state in dog plasma at 2 mg/kg, iv; type: ADME, organism-based, Canis lupus familiaris; parameters: dose 2 mg/kg, route intravenous; conditions: read-out: Vdss
[23] = Cmax in human plasma at 2 mg/kg, po; type: ADME, organism-based; parameters: dose 2 mg/kg, route oral
[24] = tested on: Plasma; test: AUC (infinity) in rat plasma at 2 mg/kg, iv; type: ADME, organism-based; parameters: time infinity, dose 2 mg/kg, route intravenous; conditions: in vivo
[25] = Cmax in rat plasma at 25 mg/kg, po; type: ADME, organism-based; parameters: dose 25 mg/kg, route oral
[26] = tested on: Serum; test: Drug level in mouse serum at 25 mg/kg, ip; type: ADME, organism-based; parameters: dose 25 mg/kg, route intraperitoneal; conditions: in vivo
[27] = tested on: Canis familiaris; test: Prolongation of activated partial thromboplastin time in dog at 100 mg/kg/day, po; type: functional, organism-based; conditions: Canis lupus familiaris
[28] = Terminal half life in dog plasma at 10 mg/kg, po; type: ADME, organism-based, Canis lupus familiaris; parameters: dose 10 mg/kg, route oral; conditions: read-out: beta t1/2 (converted)
[29] = tested on: Fibroblast; test: Ratio of compound EC50 to idebenone EC50 for cytoprotectant activity in Friedreich ataxia patient fibroblasts; type: functional, Homo sapiens
[30] = tested on: Brain; test: AUC (infinity) in mouse brain at 25 mg/kg, ip; type: ADME, organism-based; parameters: time infinity, dose 25 mg/kg, route intraperitoneal; conditions: in vivo
[31] = tested on: Brain; test: AUCt in mouse brain at 25 mg/kg, ip; type: ADME, organism-based; parameters: dose 25 mg/kg, route intraperitoneal; conditions: in vivo
[32] = Tmax in mouse plasma at 25 mg/kg, ip; type: ADME, organism-based; parameters: dose 25 mg/kg, route intraperitoneal
[33] = AUCt in mouse plasma at 25 mg/kg, ip; type: ADME, organism-based; parameters: dose 25 mg/kg, route intraperitoneal
[34] = Terminal half life in rat plasma at 10 mg/kg, po; type: ADME, organism-based; parameters: dose 10 mg/kg, route oral; conditions: read-out: beta t1/2 (converted)
[35] = tested on: Rattus norvegicus; test: Prolongation of activated partial thromboplastin time in rat at 100 mg/kg/day, po; type: functional, organism-based
[36] = Tmax in dog plasma at 10 mg/kg, po; type: ADME, organism-based, Canis lupus familiaris; parameters: dose 10 mg/kg, route oral
[37] = Cytoprotectant activity against L-buthionine-(S,R)-sulfoximine-induced cell death in Leigh syndrome patient fibroblasts assessed as increase of cell viability; type: functional, cell-based; conditions: Homo sapiens, Fibroblast
[38] = Apparent volume of distribution in rat plasma at 2 mg/kg, iv; type: ADME, organism-based; parameters: dose 2 mg/kg, route intravenous; conditions: read-out: Vz
[39] = AUCt in dog plasma at 2 mg/kg, iv; type: ADME, organism-based, Canis lupus familiaris; parameters: dose 2 mg/kg, route intravenous
[40] = tested on: Mus musculus; test: Ratio of drug level in mouse brain to serum at 25 mg/kg, ip
[41] = tested on: Plasma; test: Volume of infusion in dog plasma at 2 mg/kg, iv; type: ADME, organism-based, Canis lupus familiaris; parameters: dose 2 mg/kg, route intravenous; conditions: in vivo
[42] = Tmax in human plasma at 2 mg/kg, po; type: ADME, organism-based; parameters: dose 2 mg/kg, route oral
[43] = Toxicity in dog administered orally once daily for 28 days; type: organism-based, Canis lupus familiaris; conditions: in vivo, po
[44] = AUCt in rat plasma at 25 mg/kg, po; type: ADME, organism-based; parameters: dose 25 mg/kg, route oral
[45] = tested on: Fibroblast; test: Ratio of compound EC50 to co-enzyme Q10 EC50 for cytoprotectant activity in Friedreich ataxia patient fibroblasts; type: functional, Homo sapiens
[46] = Terminal half life in mouse brain at 25 mg/kg, ip; type: ADME, organism-based; parameters: dose 25 mg/kg, route intraperitoneal; conditions: read-out: beta t1/2 (converted)
[47] = Terminal half life in rat plasma at 2 mg/kg, iv; type: ADME, organism-based; parameters: dose 2 mg/kg, route intravenous; conditions: read-out: beta t1/2 (converted)
[48] = AUC (infinity) in dog plasma at 2 mg/kg, iv; type: ADME, organism-based, Canis lupus familiaris; parameters: dose 2 mg/kg, route intravenous, time infinity
[49] = AUCt in rat plasma at 2 mg/kg, iv; type: ADME, organism-based; parameters: dose 2 mg/kg, route intravenous
[50] = tested on: Plasma; test: Volume of infusion in rat plasma at 2 mg/kg, iv; type: ADME, organism-based; parameters: dose 2 mg/kg, route intravenous; conditions: in vivo
[51] = Toxicity in rat administered orally once daily for 28 days; type: organism-based; conditions: in vivo, po
[52] = tested on: Rattus norvegicus; test: Prolongation of prothrombin time in rat at 100 mg/kg/day, po; type: functional, organism-based
[53] = tested on: CHO; test: Genotoxicity in CHO cells assessed as induction of micronucleus; type: toxicity, cell-based, Cricetulus griseus; conditions: chinese hamster
[54] = Drug level in dog retina at 300 mg/kg/day, po qd for 7 days; type: ADME, organism-based, Canis lupus familiaris; parameters: route oral; conditions: read-out: Drug uptake
[55] = AUC (infinity) in mouse plasma at 25 mg/kg, ip; type: ADME, organism-based; parameters: time infinity, dose 25 mg/kg, route intraperitoneal
[56] = AUC (infinity) in rat plasma at 10 mg/kg, po; type: ADME, organism-based; parameters: time infinity, dose 10 mg/kg, route oral
[57] = tested on: Fibroblast; test: Ratio of compound EC50 to resveratrol EC50 for cytoprotectant activity in Friedreich ataxia patient fibroblasts; type: functional, Homo sapiens
[58] = Tmax in rat plasma at 10 mg/kg, po; type: ADME, organism-based; parameters: dose 10 mg/kg, route oral
[59] = Cmax in rat plasma at 10 mg/kg, po; type: ADME, organism-based; parameters: dose 10 mg/kg, route oral
[60] = Volume of distribution at steady state in rat plasma at 2 mg/kg, iv; type: ADME, organism-based; parameters: dose 2 mg/kg, route intravenous; conditions: read-out: Vdss
[61] = tested on: Canis familiaris; test: Prolongation of prothrombin time in dog at 100 mg/kg/day, po; type: functional, organism-based; conditions: Canis lupus familiaris
[62] = Bioavailability in fed rat plasma at 10 mg/kg, po; type: ADME, organism-based
[63] = Plasma concentration in dog at 300 mg/kg/day, po qd for 7 days; type: ADME, organism-based, Canis lupus familiaris; parameters: route oral
[64] = tested on: Salmonella typhimurium; test: Mutagenic activity in Salmonella Typhimurium by Ames test; type: toxicity, organism-based; conditions: salmonella enterica subsp. enterica serovar typhimurium
[65] = Clearance in dog plasma at 2 mg/kg, iv; type: ADME, organism-based, Canis lupus familiaris; parameters: dose 2 mg/kg, route intravenous

Compound: COC1=C(OC)C(=O)C(C/C=C(\C)CC/C=C(\C)CC/C=C(\C)CC/C=C(\C)CC/C=C(\C)CC/C=C(\C)CC/C=C(\C)CC/C=C(\C)CC/C=C(\C)CCC=C(C)C)=C(C)C1=O
Activity [1]: inactive | Activity [2]: inactive

Stability [3]: 7% | Stability [4]: 5%
Compound: CC(C)=CCC/C(C)=C/CC/C(C)=C/CC[C@]1(C)CCc2c(C)c(O)c(C)c(C)c2O1 [ALPHA-TOCOTRIENOL]

Compound: COC1=C(OC)C(=O)C(CCCCCCCCCCO)=C(C)C1=O [IDEBENONE]
EC50 [5]: 850 nM

Compound: Oc1ccc(/C=C/c2cc(O)cc(O)c2)cc1 [RESVERATROL]
EC50 [5]: 1440 nM

Vd [6]: 6.25 L/kg | Cmax [7]: 1190 ng/mL | Cmax [8]: 442 ng/mL | Tmax [9]: 12 h | Ratio [10]: 0.71 mL/g | bioavailability [11]: 17% | AUC(0-t) [12]: 2690 ng·h/mL | Tmax [13]: 4 h | concentration at 168 h [14]: 755 ng/g | half-life [15]: 7.5 h | AUC(0-t) [16]: 4730 ng·h/mL | bioavailability [17]: 4.1% | AUC(0-inf) [18]: 2820 ng·h/mL | half-life [19]: 7.6 h | Drug uptake [20]: 848 ng/g | Cmax [21]: 539 ng/g | Vd [22]: 2.54 L/kg | Cmax [23]: 167 ng/mL | AUC [24]: 1069 ng·h/mL | Cmax [25]: 248 ng/mL | Drug uptake [26]: 300 ng/mL | half-life [28]: 7.6 h | AUC [30]: 10724 ng·h/g | AUCt [31]: 7738 ng·h/g | Tmax [32]: 0.5 h | AUC(0-t) [33]: 4840 ng·h/mL | half-life [34]: 3.5 h | Tmax [36]: 2.8 h | Vd [38]: 3.73 L/kg | AUC(0-t) [39]: 3410 ng·h/mL | Ratio [40]: 1.83 mL/g | Vi [41]: 0.095 L/kg | Tmax [42]: 2 h | AUC(0-t) [44]: 961 ng·h/mL | half-life [46]: 12.4 h | half-life [47]: 3.5 h | AUC(0-inf) [48]: 3570 ng·h/mL | AUC(0-t) [49]: 984 ng·h/mL | Vi [50]: 0.117 L/kg | concentration at 168 h [54]: 11200 ng/g | AUC(0-inf) [55]: 5860 ng·h/mL | AUC(0-inf) [56]: 4780 ng·h/mL | Tmax [58]: 3.5 h | Cmax [59]: 931 ng/mL | Vd [60]: 0.222 L/kg | bioavailability [62]: 89% | concentration at 168 h [63]: 10000 ng/mL | clearance [65]: 9.57 mL/min/kg
Compound: CC(C)=CCC/C(C)=C/CC/C(C)=C/CC[C@@](C)(O)CCC1=C(C)C(=O)C(C)=C(C)C1=O [VATIQUINONE]
Activity [27]: Active | Ratio EC50 [29]: 100 | EC50 [5]: 24 nM | Activity [35]: Active | EC50 [37]: 30 nM | NOAEL at 672 h [43]: 100 mg/kg | Ratio EC50 [45]: 100 | NOAEL at 672 h [51]: 100 mg/kg | Activity [52]: Active | Activity [53]: Non-toxic | Ratio EC50 [57]: 100 | Activity [61]: Active | Activity [64]: Non-toxic
